ChEMBL document CHEMBL1131172 (J Med Chem, 1998)

Experiments:
786-0 = experiment: Inhibition of the growth of renal cancer(786-0) cell line. value in parentheses is percent inhibition at 0.01 uM; assay type: functional; conditions: Homo sapiens
A549 [1] = experiment: Inhibition of the growth of non-small-cell lung cancer (A549/ATCC) cell line; assay type: functional; conditions: Homo sapiens
A549 [2] = experiment: Inhibition of the growth of non-small-cell lung cancer (A549/ATCC) cell line at 0.01 uM; assay type: functional; conditions: Homo sapiens
CAKI-1 [3] = experiment: Inhibition of the growth of renal cancer(CAKI-1) cell line at 0.01 uM; assay type: functional; conditions: Homo sapiens
CAKI-1 [4] = experiment: Inhibition of the growth of renal cancer(CAKI-1) cell line; assay type: functional; conditions: Homo sapiens
DU-145 [5] = experiment: Inhibition of the growth of prostate cancer(DU-145) cell line; assay type: functional; conditions: Homo sapiens
DU-145 [6] = experiment: Inhibition of the growth of prostate cancer(DU-145) cell line at 0.01 uM; assay type: functional; conditions: Homo sapiens
HCT-15 [7] = experiment: Inhibition of the growth of colon cancer(HCT-15) cell line. value in parentheses is percent inhibition at 0.01 uM; assay type: functional; conditions: Homo sapiens
HCT-15 [8] = experiment: inhibition of the growth of colon cancer(HCT-15) cell line; assay type: functional; conditions: Homo sapiens
HCT-116 [9] = experiment: inhibition of the growth of colon cancer(HCT116) cell line; assay type: functional; conditions: Homo sapiens
HCT-116 [10] = experiment: Inhibition of the growth of colon cancer(HCT116) cell line at 0.01 uM; assay type: functional; conditions: Homo sapiens
KM12 = experiment: inhibition of the growth of colon cancer(KM-12) cell line at 0.01 uM; assay type: functional; conditions: Homo sapiens
IGROV-1 [11] = experiment: Inhibition of the growth of ovarian cancer(IGROVI) cell line; assay type: functional; conditions: Homo sapiens
M14 [12] = experiment: Inhibition of the growth of melanoma cancer (M14) cell line at 0.01 uM; assay type: functional; conditions: Homo sapiens
MOLT-4 = experiment: Inhibition of the growth of leukemia (MOLT-4) cell line.; assay type: functional; conditions: Homo sapiens
NCI/ADR-RES [13] = experiment: Inhibition of the growth of breast cancer (MCF7/ADR-RES) cell line; assay type: functional; conditions: Homo sapiens
NCI/ADR-RES [14] = experiment: Inhibition of the growth of breast cancer (MCF7/ADR-RES) cell line at 0.01 uM; assay type: functional; conditions: Homo sapiens
MDA-MB-435 [15] = experiment: Inhibition of the growth of breast cancer (MDA-MB-435) cell line; assay type: functional; conditions: Homo sapiens
MDA-N [16] = experiment: Inhibition of the growth of breast cancer(MDA-N) cell line; assay type: functional; conditions: Homo sapiens
MDA-N [17] = experiment: Inhibition of the growth of breast cancer(MDA-N) cell line at 0.01 uM; assay type: functional; conditions: Homo sapiens
MDA-MB-435 [18] = experiment: Inhibition of the growth of breast cancer (MDA-MB-435) cell line at 0.01 uM; assay type: functional; conditions: Homo sapiens
M14 [19] = experiment: Inhibition of the growth of melanoma cancer (M14) cell line; assay type: functional; conditions: Homo sapiens
MCF7 = experiment: Inhibition of the growth of breast cancer (MCF-7) cell line; assay type: functional; conditions: Homo sapiens
NCI-H522 [20] = experiment: inhibition of the growth of non-small-cell lung cancer (NCI-H522) cell line; assay type: functional; conditions: Homo sapiens
NCI-H522 [21] = experiment: Inhibition of the growth of non-small-cell lung cancer (NCI-H522) cell line at 0.01 uM; assay type: functional; conditions: Homo sapiens
NCI-H460 [22] = experiment: Inhibition of the growth of non-small-cell lung cancer (NCI-H460) cell line; assay type: functional; conditions: Homo sapiens
NCI-H23 [23] = experiment: Inhibition of the growth of non-small-cell lung cancer (NCI-H23) cell line; assay type: functional; conditions: Homo sapiens
OVCAR-8 [24] = experiment: Inhibition of the growth of ovarian cancer(OVCAR-8) cell line; assay type: functional; conditions: Homo sapiens
NCI-H460 [25] = experiment: inhibition of the growth of non-small-cell lung cancer (NCI-H460) cell line at 0.01 uM; assay type: functional; conditions: Homo sapiens
NCI-H23 [26] = experiment: Inhibition of the growth of non-small-cell lung cancer (NCI-H23) cell line at 0.01 uM; assay type: functional; conditions: Homo sapiens
RPMI-8226 [27] = experiment: Inhibition of the growth of leukemia (RPMI-8226) cell line at 0.01 uM; assay type: functional; conditions: Homo sapiens
RPMI-8226 [28] = experiment: Inhibition of the growth of leukemia (RPMI-8226) cell line; assay type: functional; conditions: Homo sapiens
SF-268 [29] = experiment: Inhibition of the growth of CNS cancer(SF-268) cell line at 0.01 uM; assay type: functional; conditions: Homo sapiens
SF-268 [30] = experiment: inhibition of the growth of CNS cancer(SF-268) cell line; assay type: functional; conditions: Homo sapiens
SF-295 [31] = experiment: inhibition of the growth of CNS cancer(SF-295) cell line; assay type: functional; conditions: Homo sapiens
SF-295 [32] = experiment: Inhibition of the growth of CNS cancer(SF-295) cell line at 0.01 uM; assay type: functional; conditions: Homo sapiens
SNB-19 [33] = experiment: inhibition of the growth of CNS cancer(SNB-19) cell line; assay type: functional; conditions: Homo sapiens
SNB-19 [34] = experiment: Inhibition of the growth of CNS cancer(SNB-19) cell line at 0.01 uM; assay type: functional; conditions: Homo sapiens
SF-539 = experiment: inhibition of the growth of CNS cancer(SF-539) cell line. value in parentheses is percent inhibition at 0.01 uM; assay type: functional; conditions: Homo sapiens
SR [35] = experiment: Inhibition of the growth of leukemia(SR) cell line. value in parentheses is percent inhibition at 0.01 uM at 0.01 uM; assay type: functional; conditions: Homo sapiens
SK-MEL-5 [36] = experiment: Inhibition of the growth of melanoma cancer (SK-MEL-5) cell line at 0.01 uM; assay type: functional; conditions: Homo sapiens
SK-MEL-5 [37] = experiment: Inhibition of the growth of melanoma cancer (SK-MEL-5) cell line; assay type: functional; conditions: Homo sapiens
UO-31 [38] = experiment: Inhibition of the growth of renal cancer(UO-31) cell line; assay type: functional; conditions: Homo sapiens
UO-31 [39] = experiment: Inhibition of the growth of renal cancer(UO-31) cell line at 0.01 uM; assay type: functional; conditions: Homo sapiens
IGROV-1 [40] = experiment: Inhibition of the growth of ovarian cancer(IGROVI) cell line at 0.01 uM; assay type: functional; conditions: Homo sapiens
OVCAR-8 [41] = experiment: Inhibition of the growth of ovarian cancer(OVCAR-8) cell line at 0.01 uM; assay type: functional; conditions: Homo sapiens
SR [42] = experiment: Inhibition of the growth of leukemia(SR) cell line. value in parentheses is percent inhibition at 0.01 uM; assay type: functional; conditions: Homo sapiens
[43] = target: T1, Bifunctional dihydrofolate reductase-thymidylate synthase (Toxoplasma gondii, UniProt Q07422)
T1 sequence (Q07422 whole entry): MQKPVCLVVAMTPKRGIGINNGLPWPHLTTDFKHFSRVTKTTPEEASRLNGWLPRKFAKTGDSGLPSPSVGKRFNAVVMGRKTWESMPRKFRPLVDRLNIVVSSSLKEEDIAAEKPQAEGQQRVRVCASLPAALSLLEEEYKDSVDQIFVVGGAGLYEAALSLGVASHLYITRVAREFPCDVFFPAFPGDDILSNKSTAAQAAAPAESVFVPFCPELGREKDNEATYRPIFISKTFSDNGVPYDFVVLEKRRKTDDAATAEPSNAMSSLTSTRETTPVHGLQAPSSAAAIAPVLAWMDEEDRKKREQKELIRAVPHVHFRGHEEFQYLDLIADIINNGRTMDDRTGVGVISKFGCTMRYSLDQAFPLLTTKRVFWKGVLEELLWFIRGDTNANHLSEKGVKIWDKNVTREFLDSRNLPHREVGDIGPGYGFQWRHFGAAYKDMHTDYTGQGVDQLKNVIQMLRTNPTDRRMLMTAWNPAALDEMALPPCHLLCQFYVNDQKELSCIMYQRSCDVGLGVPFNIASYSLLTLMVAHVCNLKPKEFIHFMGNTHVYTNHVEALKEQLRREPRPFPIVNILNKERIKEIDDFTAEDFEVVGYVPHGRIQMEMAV
Description: Inhibitory activity against dihydrofolate reductase (DHFR) from Toxoplasma gondii

Dihydrofolate reductase [44] = target: T2, Dihydrofolate reductase (Pneumocystis carinii, UniProt P16184)
T2 sequence (P16184 whole entry): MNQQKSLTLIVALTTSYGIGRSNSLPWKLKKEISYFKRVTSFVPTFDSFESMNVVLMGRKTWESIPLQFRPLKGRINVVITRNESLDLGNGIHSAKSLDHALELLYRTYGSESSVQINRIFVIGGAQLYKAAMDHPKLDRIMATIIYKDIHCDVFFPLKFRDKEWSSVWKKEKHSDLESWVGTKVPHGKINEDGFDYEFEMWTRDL
Description: Inhibitory activity against dihydrofolate reductase (DHFR) from Pneumocystis carinii

Dihydrofolate reductase [45] = target: T3, Dihydrofolate reductase (Rattus norvegicus, UniProt Q920D2)
T3 sequence (Q920D2 whole entry): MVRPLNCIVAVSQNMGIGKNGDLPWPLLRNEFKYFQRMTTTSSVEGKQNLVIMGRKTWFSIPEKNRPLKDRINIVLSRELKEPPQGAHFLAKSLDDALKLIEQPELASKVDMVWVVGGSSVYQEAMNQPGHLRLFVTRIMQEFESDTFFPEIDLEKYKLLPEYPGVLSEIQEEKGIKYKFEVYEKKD
Description: Inhibitory activity against dihydrofolate reductase (DHFR) from rat liver

NCI-H322M = experiment: Inhibition of the growth of non-small-cell lung cancer (NCI-H322M) cell line; conditions: Homo sapiens

GI50 (786-0): 0.59 µM
GI50 (A549 [1]): < 0.01 µM
GI50 (DU-145 [5]): < 0.01 µM
GI50 (HCT-15 [8]): < 0.01 µM
GI50 (HCT-116 [9]): < 0.01 µM
GI50 (MOLT-4): 0.02 µM
GI50 (MDA-MB-435 [15]): < 0.01 µM
GI50 (MCF7): 0.06 µM
GI50 (NCI-H522 [20]): < 0.01 µM
GI50 (NCI-H460 [22]): < 0.01 µM
GI50 (NCI-H23 [23]): < 0.01 µM
GI50 (OVCAR-8 [24]): < 0.01 µM
GI50 (RPMI-8226 [28]): < 0.01 µM
GI50 (SK-MEL-5 [37]): < 0.01 µM
IC50 (Dihydrofolate reductase [44]): 0.22 µM
IC50 (Dihydrofolate reductase [45]): 0.0068 µM
GI50 (NCI-H322M): 0.02 µM
Structure (SMILES): COc1ccc(N(C)c2ccc3nc(N)nc(N)c3n2)cc1
inhibition at 0.01 µM (A549 [2]): 67%
inhibition at 0.01 µM (CAKI-1 [3]): 59%
GI50 (CAKI-1 [4]): < 0.01 µM
inhibition at 0.01 µM (DU-145 [6]): 51%
inhibition at 0.01 µM (HCT-15 [7]): 67%
inhibition at 0.01 µM (HCT-116 [10]): 83%
GI50 (KM12): 0.02 µM
GI50 (IGROV-1 [11]): < 0.01 µM
inhibition at 0.01 µM (M14 [12]): 55%
GI50 (NCI/ADR-RES [13]): < 0.01 µM
inhibition at 0.01 µM (NCI/ADR-RES [14]): 100%
GI50 (MDA-N [16]): < 0.01 µM
inhibition at 0.01 µM (MDA-N [17]): 66%
inhibition at 0.01 µM (MDA-MB-435 [18]): 68%
GI50 (M14 [19]): < 0.01 µM
inhibition at 0.01 µM (NCI-H522 [21]): 53%
inhibition at 0.01 µM (NCI-H460 [25]): 84%
inhibition at 0.01 µM (NCI-H23 [26]): 54%
inhibition at 0.01 µM (RPMI-8226 [27]): 59%
inhibition at 0.01 µM (SF-268 [29]): 68%
GI50 (SF-268 [30]): < 0.01 µM
GI50 (SF-295 [31]): < 0.01 µM
inhibition at 0.01 µM (SF-295 [32]): 62%
GI50 (SNB-19 [33]): < 0.01 µM
inhibition at 0.01 µM (SNB-19 [34]): 51%
GI50 (SF-539): 0.03 µM
inhibition at 0.01 µM (SR [35]): 53%
inhibition at 0.01 µM (SK-MEL-5 [36]): 65%
GI50 (UO-31 [38]): < 0.01 µM
inhibition at 0.01 µM (UO-31 [39]): 74%
inhibition at 0.01 µM (IGROV-1 [40]): 62%
inhibition at 0.01 µM (OVCAR-8 [41]): 90%
GI50 (SR [42]): < 0.01 µM
IC50 [43]: 0.0086 µM
